Data as given in patent US20100324096A1, “Whitening Agent And Skin External Preparation” (SHISEIDO COMPANY LTD., priority 2008, published 2010).

The compounds below were run on Mouse B16 melanoma cells (assay: Melanin production inhibition test). Conditions: Mus musculus, 72 h, Table 1, 3 days, minimum non-cytotoxic concentration at which melanin amount was 80% or less, read-out: Inhibitory effect on melanin production.
Format: cell-based
Description: A test for melanin production inhibition by the compounds of the formula (1) was conducted. The test method is as follows.
Melanin Production Inhibition Test
(1) Inoculation of Cells and Addition of Test Substances
Mouse B16 melanoma cells were inoculated in a six well plate at 100,000 cells/well. The next day, test substance solutions (solvent: DMSO) were added.
(2) Cell Proliferation Test
Three days after the addition of the test substance solution, the medium was removed by aspiration. Then 1 ml of EMEM medium containing 10% Alamar Blue solution was added, and a reaction was allowed to proceed at 37° C. After 30 minutes, 100 μL of the reaction mixture was transferred to a 96 well plate and fluorescence was measured at an excitation wavelength of 544 nm and a measurement wavelength of 590 nm. Using the value thus measured as a relative value of cell count, a ratio of the cell count (% cell count) of the test substance-added group to the test substance-absent group (group in which only the solvent was added) was calculated. The higher the % cell count, the lower the cytotoxicity. It was determined that a compound having the % cell count of 80% or more was non-cytotoxic, and that a compound having the % cell count of less than 80% was cytotoxic.
(3) Quantification of Melanin
The cells after the cell proliferation test were washed with PBS three times, and then lysed by addition of 200 μL of 1M NaOH to measure an absorbance at 475 nm. Using the value thus measured as a relative value of the melanin amount, a ratio of the melanin amount (%) of the test substance-added group to the test substance-absent group (group in which only the solvent was added) was calculated. The lower the ratio of the melanin amount, the higher the melanin production-inhibitory effect. […] The inhibitory effect on melanin production was evaluated according to the following criteria.
⊚: the minimum concentration for inhibition of melanin production was 1 ppm or less.
◯: the minimum concentration for inhibition of melanin production was more than 1 ppm and 10 ppm or less.

Structure (SMILES) | minimal effective concentration
COc1ccc(-c2nc(Nc3c(C)cccc3C)sc2C)cc1 [Compound 7] | ≤ 1 µg/mL
CCc1ccccc1Nc1nc(-c2ccc(O)c(O)c2)cs1 [Compound 9] | ≤ 1 µg/mL
c1ccc(Nc2nc(-c3ccccn3)cs2)cc1 [Compound 4] | ≤ 1 µg/mL
Cc1ccccc1Nc1nc(-c2ccncc2)cs1 [Compound 1] | ≤ 1 µg/mL
Cc1ccc(Nc2nc(C(C)(C)C)cs2)c(C)c1 [Compound 5] | ≤ 1 µg/mL
Cc1ccccc1Nc1nc(-c2ccccn2)cs1 [Compound 2, 4-(pyridin-2-yl)-N-o-toluylthiazol-2-amine] | ≤ 1 µg/mL
CCc1ccccc1Nc1nc(-c2ccccn2)cs1 [Compound 3] | ≤ 1 µg/mL
CCc1ccccc1Nc1nc(-c2ccc(O)cc2O)cs1 [Compound 10] | ≤ 1 µg/mL

Same assay, conditions: Mus musculus, 72 h, Table 3, 3 days, minimum non-cytotoxic concentration at which melanin amount was 80% or less, read-out: Inhibitory effect on melanin production

Structure (SMILES) | minimal effective concentration
C=CCN(C1=NC(C)(C)C(=C)S1)c1ccc(C)cc1C [Compound 31] | ≤ 1 µg/mL
C=C1SC(Nc2ccc(C)cc2C)=NC1(C)C [Compound 32] | ≤ 1 µg/mL

Same assay, conditions: Mus musculus, 72 h, Table 4, 3 days, minimum non-cytotoxic concentration at which melanin amount was 80% or less, read-out: Inhibitory effect on melanin production

Structure (SMILES) | minimal effective concentration
O=C(Nc1nccs1)C1(c2ccccc2)CCCC1 [Compound 36] | ≤ 1 µg/mL

Same assay, conditions: Table 1, 3 days, minimum non-cytotoxic concentration at which melanin amount was 80% or less

Structure (SMILES) | Inhibitory effect on melanin production
Cc1cccc(C)c1Nc1nc(-c2ccccc2)cs1 [Compound 8] | ⊚ (the minimum concentration for inhibition of melanin production was 1 ppm or less.)
CC(=O)c1sc(Nc2ccccc2C)nc1C [Compound 6] | ∘

Same assay, conditions: Table 3, 3 days, minimum non-cytotoxic concentration at which melanin amount was 80% or less

Structure (SMILES) | Inhibitory effect on melanin production
Cc1cc(C)c(NC2=NC(CO)(CO)CS2)c(C)c1 [Compound 30] | ∘
CCC1CSC(Nc2ccccc2)=N1 (centres unmarked) [Compound 19] | ⊚ (the minimum concentration for inhibition of melanin production was 1 ppm or less.)
Cc1ccccc1NC1=NCCS1 [Compound 22] | ⊚ (the minimum concentration for inhibition of melanin production was 1 ppm or less.)
COc1ccc(NC2=NC(C)(C)CS2)cc1 [Compound 24] | ∘
OCC1(CO)CSC(Nc2ccccc2)=N1 [Compound 29] | ∘
c1ccc(NC2=NCCS2)cc1 [Compound 20] | ∘
COc1ccccc1NC1=NCCS1 [Compound 23] | ⊚ (the minimum concentration for inhibition of melanin production was 1 ppm or less.)
Cc1ccc(NC2=NC(C)CS2)c(C)c1 (centres unmarked) [Compound 27] | ∘
COc1cccc(NC2=NC(C)(C)CS2)c1 [Compound 25] | ∘
COc1ccccc1NC1=NC(C)(C)CS1 [Compound 26] | ∘
Cc1ccccc1NC1=NCC(C)(C)S1 [Compound 28] | ⊚ (the minimum concentration for inhibition of melanin production was 1 ppm or less.)
CC1CN=C(Nc2ccccc2)S1 (centres unmarked) [Compound 21] | ⊚ (the minimum concentration for inhibition of melanin production was 1 ppm or less.)

Same assay, conditions: Table 4, 3 days, minimum non-cytotoxic concentration at which melanin amount was 80% or less

Structure (SMILES) | Inhibitory effect on melanin production
Cc1nc(NC(C)(C)C)sc1-c1ccccc1 [Compound 33] | ⊚ (the minimum concentration for inhibition of melanin production was 1 ppm or less.)
Cc1ccc2oc(Nc3nc(C)cc(O)n3)nc2c1 [Compound 37] | ∘
O=C(Nc1nc2c(s1)CCCC2)c1ccccc1 [Compound 35] | ⊚ (the minimum concentration for inhibition of melanin production was 1 ppm or less.)
Cc1ccc(C(=O)Nc2nc(C)cs2)cc1 [Compound 34] | ∘

Same assay, conditions: Table 5, 3 days, minimum non-cytotoxic concentration at which melanin amount was 80% or less

Structure (SMILES) | Inhibitory effect on melanin production
CC1(C)CN=C(Nc2cccnc2)S1 [Compound 38] | ∘
CC1(C)CN=C(NCc2ccccc2)S1 [Compound 40] | ∘
CC1(C)CN=C(NC2CCCCC2)S1 [Compound 39] | ∘
